# From patent US9884048B2, “ERK inhibitors” (Merck Sharp & Dohme Corp., priority 2014, dated 2018)
# Target: phosphorylated active hERK2 enzyme (Homo sapiens (Human), UniProt P28482)
# Details: not given
# Sequence of phosphorylated active hERK2 enzyme (P28482 whole entry): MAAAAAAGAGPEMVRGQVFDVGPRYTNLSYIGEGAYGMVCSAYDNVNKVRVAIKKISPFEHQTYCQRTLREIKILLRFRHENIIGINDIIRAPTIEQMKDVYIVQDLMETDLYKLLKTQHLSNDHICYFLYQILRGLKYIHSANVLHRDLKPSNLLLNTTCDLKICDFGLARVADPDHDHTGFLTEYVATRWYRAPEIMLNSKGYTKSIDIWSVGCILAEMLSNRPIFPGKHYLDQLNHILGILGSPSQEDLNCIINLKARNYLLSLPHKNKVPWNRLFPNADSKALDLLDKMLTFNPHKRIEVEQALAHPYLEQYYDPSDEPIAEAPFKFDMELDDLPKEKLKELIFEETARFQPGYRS
row,IC50 [nM],Compound
1,19.1,"Cc1cc(-n2ncc3cc(NC(=O)N[C@H]4CCCC[C@H]4c4ccc(F)cc4)ncc32)ccn1 (racemic) [Example 174, Racemic cis 1-[(1S,2S) and (1R,2R)-2-(4-fluorophenyl)cyclohexyl]-3-[1-(2-methylpyridin-4-yl)-1H-pyrazolo[3,4-c]pyridin-5-yl]urea]"
2,294,"C[C@@H](NC(=O)Nc1cc2cnn(CC3CCCC3)c2c(CO)n1)c1ccccc1 [Example 303, 1-[1-(cyclopentylmethyl)-7-(hydroxymethyl)-1H-pyrazolo[3,4-c]pyridin-5-yl]-3-[(1R)-1-phenylethyl]urea]"

# Same assay, conditions: read-out: ERK2 IC50; IMAP-FP assay; 0.5 nM hERK2, 30 μM ATP; 10 point titration, 3 μM starting concentration
row,Compound,IC50 [nM]
1,"C=CC(=O)NC[C@@H](NC(=O)Nc1cc2cnn(C)c2cn1)c1ccccc1 [Example 328, N-[(2S)-2-{[(1-Methyl-1H-pyrazolo[3,4-c]pyridin-5-yl)carbamoyl]amino}-2-phenylethyl]prop-2-enamide]",796
2,"C[C@@H](NC(=O)Nc1cc2cnn(C3CCCC3)c2c(CO)n1)c1ccccc1 [Example 307, 1-[1-cyclopentyl-7-(hydroxymethyl)-1H-pyrazolo[3,4-c]pyridin-5-yl]-3-[(1R)-1-phenylethyl]urea]",125
3,"C[C@@H](NC(=O)Nc1cc2cnn(C3CCOCC3)c2cn1)c1ccccc1 [Example 238, 1-[(1R)-1-phenylethyl]-3-[1-(tetrahydro-2H-pyran-4-yl)-1H-pyrazolo[3,4-c]pyridin-5-yl]urea]",147
4,"C[C@@H](NC(=O)Nc1cc2cnn(-c3ccc(F)cc3)c2cn1)c1ccccn1 [Example 222, 1-[1-(4-fluorophenyl)-1H-pyrazolo[3,4-c]pyridin-5-yl]-3-[(1R)-1-pyridin-2-ylethyl]urea]",7.53
5,"COCc1nc(NC(=O)N[C@H](C)c2ccccc2)cc2cnn(-c3ccc(F)cc3)c12 [Example 241, 1-[1-(4-fluorophenyl)-7-(methoxymethyl)-1H-pyrazolo[3,4-c]pyridin-5-yl]-3-[(1R)-1-phenylethyl]urea]",55.9
6,"O=C(Nc1cc2cnn(Cc3ccncc3)c2cn1)N[C@H](CO)c1ccccc1 [Example 261, 1-[(1S)-2-hydroxy-1-phenylethyl]-3-[1-(pyridin-4-ylmethyl)-1H-pyrazolo[3,4-c]pyridin-5-yl]urea]",2430
7,"Cc1cc(-n2ncc3cc(NC(=O)NC4CCCN(Cc5cccnc5Cl)C4)ncc32)ccn1 (stereo not drawn) [Example 268, 1-{1-[(2-chloropyridin-3-yl)methyl]piperidin-3-yl}-3-[1-(2-methylpyridin-4-yl)-1H-pyrazolo[3,4-c]pyridin-5-yl]urea]",18.6
8,"CCNC(=O)OCc1nc(NC(=O)N[C@H](C)c2ccccc2)cc2cnn(-c3ccc(F)cc3)c12 [Example 327, [1-(4-Fluorophenyl)-5-({[(1R)-1-phenylethyl]carbamoyl}amino)-1H-pyrazolo[3,4-c]pyridin-7-yl]methyl ethylcarbamate]",116
9,"Cc1cc(-n2ncc3cc(NC(=O)N[C@H](C)c4ccccc4)nc(CNCCN(C)C)c32)ccn1 [Example 322, 1-[7-({[2-(dimethylamino)ethyl]amino}methyl)-1-(2-methylpyridin-4-yl)-1H-pyrazolo[3,4-c]pyridin-5-yl]-3-[(1R)-1-phenylethyl]urea]",86.6
10,"CC(C)(O)[C@@H](NC(=O)Nc1cc2cn[nH]c2cn1)c1ccccc1 [Example 230, (S)-1-(2-hydroxy-2-methyl-1-phenylpropyl)-3-(1H-pyrazolo[3,4-c]pyridin-5-yl)urea]",70
11,"Cc1cc(-n2ncc3cc(NC(=O)N[C@H]4CN(C)C[C@@H]4c4ccc(C)s4)ncc32)ccn1 [Example 189, 1-[(3R,4S)-1-methyl-4-(5-methylthiophen-2-yl)pyrrolidin-3-yl]-3-[1-(2-methylpyridin-4-yl)-1H-pyrazolo[3,4-c]pyridin-5-yl]urea]",0.254
12,"Cn1cc2cc(-n3ncc4cc(NC(=O)N[C@@H](c5ccccc5)C(C)(C)O)ncc43)ccc2n1 [Example 207, 1-[(1S)-2-hydroxy-2-methyl-1-phenylpropyl]-3[-1-(2-methyl-2H-indazol-5-yl)-1H-pyrazolo[3,4-c]pyridin-5-yl]urea]",0.33
13,"Cc1cc(-n2ncc3cc(NC(=O)NC(C)c4csc(C)n4)ncc32)ccn1 (stereo not drawn) [Example 128, 1-[1-(2-methylpyridin-4-yl)-1H-pyrazolo[3,4-c]pyridin-5-yl]-3-[1-(2-methyl-1,3-thiazol-4-yl)ethyl]urea]",2030
14,"O=C(NCc1ccc(Cl)cc1Cl)Nc1cc2cnn(-c3ccncc3)c2cn1 [Example 11, 1-(2,4-dichlorobenzyl)-3-(1-pyridin-4-yl-1H-pyrazolo[3,4-c]pyridin-5-yl)urea]",26
15,"CO[C@H]1CN(Cc2c(F)cccc2F)C[C@@H]1NC(=O)Nc1cc2cnn(-c3ccnc(C)c3)c2cn1 [Example 269, 1-[(3S,4S)-1-(2,6-difluorobenzyl)-4-methoxypyrrolidin-3-yl]-3-[1-(2-methylpyridin-4-yl)-1H-pyrazolo[3,4-c]pyridin-5-yl]urea]",5.39
16,"Cc1cc(-n2ncc3cc(NC(=O)N[C@H]4CN(C)C[C@@H]4C4CCCCC4)ncc32)ccn1 [Example 31, 1-[(3R,4S)-4-cyclohexyl-1-methylpyrrolidin-3-yl]-3-[1-(2-methylpyridin-4-yl)-1H-pyrazolo[3,4-c]pyridin-5-yl]urea]",35.1
17,"C[C@@H](NC(=O)Nc1cc2cnn(-c3ccc(F)cc3)c2cn1)c1ccc(F)cc1 [Example 3, 1-[(1R)-1-(4-fluorophenyl)ethyl]-3-[1-(4-fluorophenyl)-1H-pyrazolo[3,4-c]pyridin-5-yl)urea]",10.6
18,"CCO[C@H]1CN(Cc2ccccc2C(F)(F)F)C[C@@H]1NC(=O)Nc1cc2cnn(-c3ccnc(C)c3)c2cn1 [Example 279, 1-{(3S,4S)-4-ethoxy-1-[2-(trifluoromethyl)benzyl]pyrrolidin-3-yl}-3-[1-(2-methylpyridin-4-yl)-1H-pyrazolo[3,4-c]pyridin-5-yl]urea]",1750
19,"C[C@@H](NC(=O)Nc1cc2cnn(-c3ccc(F)cc3)c2c(CN2CCOCC2)n1)c1ccccc1 [Example 242, 1-[1-(4-fluorophenyl)-7-(morpholin-4-ylmethyl)-1H-pyrazolo[3,4-c]pyridin-5-yl]-3-[(1R)-1-phenylethyl]urea]",2240
20,"Cc1cc(-n2ncc3cc(NC(=O)N[C@H]4CN(C)C[C@@H]4c4sccc4C)ncc32)ccn1 [Example 113, 1-[(3R,4S)-1-methyl-4-(3-methylthiophen-2-yl)pyrrolidin-3-yl]-3-[1-(2-methylpyridin-4-yl)-1H-pyrazolo[3,4-c]pyridin-5-yl)urea]",7.11

# Now from value to compound:
row,IC50 [nM],Compound
1,12.2,"Cc1cc(-n2ncc3cc(NC(=O)N[C@H]4[C@H](c5ccccc5)CN(C)C45COC5)ncc32)ccn1 [Example 183, 1-[(7R,8S)-5-methyl-7-phenyl-2-oxa-5-azaspiro[3.4]oct-8-yl]-3-[1-(2-methylpyridin-4-yl)-1H-pyrazolo[3,4-c]pyridin-5-yl]urea]"
2,13.3,"Cc1cc(-n2ncc3cc(NC(=O)NCc4cccc(-c5ncco5)c4)ncc32)ccn1 [Example 94, 1-[1-(2-methylpyridin-4-yl)-1H-pyrazolo[3,4-c]pyridin-5-yl]-3-[3-(1,3-oxazol-2-yl)benzyl]urea]"
3,39.4,"Cc1cc(-n2ncc3cc(NC(=O)N[C@H]4CCCC[C@@H]4Cc4ccccc4)ncc32)ccn1 [Example 163, 1-[(1S,2R)-2-benzylcyclohexyl]-3-[1-(2-methylpyridin-4-yl)-1H-pyrazolo[3,4-c]pyridin-5-yl)urea]"
4,41.3,"Cn1cc(-n2ncc3cc(NC(=O)NCc4ccc(F)cc4)ncc32)cn1 [Example 4, 1-(4-fluorobenzyl)-3-[1-(1-methyl-1H-pyrazol-4-yl)-1H-pyrazolo[3,4-c]pyridin-5-yl)urea]"
5,19.7,"O=C(NCc1ccc(Cl)c(Cl)c1)Nc1cc2cnn(-c3ccc(F)cc3)c2cn1 [Example 13, 1-(3,4-dichlorobenzyl)-3-[1-(4-fluorophenyl)-1H-pyrazolo[3,4-c]pyridin-5-yl]urea]"
6,1.01,"Cc1cc(-n2ncc3cc(NC(=O)N[C@H](C)c4ccccc4)ncc32)ccn1 [Example 59, 1-[1-(2-methylpyridin-4-yl)-1H-pyrazolo[3,4-c]pyridin-5-yl]-3-[(1R)-1-phenylethyl]urea]"
7,1.08,"Cc1cc(-n2ncc3cc(NC(=O)N[C@@H](c4ccc(F)cc4)C(C)(C)O)ncc32)ccn1 [Example 294, 1-[(1S)-1-(4-fluorophenyl)-2-hydroxy-2-methylpropyl]-3-[1-(2-methylpyridin-4-yl)-1H-pyrazolo[3,4-c]pyridin-5-yl]urea]"
8,9.04,"Cc1cc(-n2ncc3cc(NC(=O)N[C@H]4[C@H](c5ccccc5)CN(C)C45COC5)ncc32)ccn1 [Example 107, 1-[(7R,8S)-5-methyl-7-phenyl-2-oxa-5-azaspiro[3.4]oct-8-yl]-3-[1-(2-methylpyridin-4-yl)-1H-pyrazolo[3,4-c]pyridin-5-yl)urea]"
9,171,"O=C(NCc1cccnc1)Nc1cc2cnn(-c3ccncc3)c2cn1 [Example 39, 1-(pyridin-3-ylmethyl)-3-(1-pyridin-4-yl-1H-pyrazolo[3,4-c]pyridin-5-yl)urea]"
10,81.8,"COCCNC(=O)Nc1cc2cnn(-c3ccnc(C)c3)c2cn1 [Example 111, 1-(2-methoxyethyl)-3-[1-(2-methylpyridin-4-yl)-1H-pyrazolo[3,4-c]pyridin-5-yl)urea]"
11,2.49,"Cc1cc(-n2ncc3cc(NC(=O)NC(c4ccccc4)C4CCCO4)ncc32)ccn1 (stereo not drawn) [Example 159, 1-[1-(2-methylpyridin-4-yl)-1H-pyrazolo[3,4-c]pyridin-5-yl]-3-[phenyl(tetrahydrofuran-2-yl)methyl]urea]"
12,5.28,Cc1cc(-n2ncc3cc(NC(=O)NCc4cccc(-n5cccn5)c4)ncc32)ccn1 [Example 75]
13,0.685,"Cc1cc(-n2ncc3cc(NC(=O)N[C@H](CN)c4ccccc4)ncc32)ccn1 [Example 187, 1-[(1S)-2-amino-1-phenylethyl]-3-[1-(2-methylpyridin-4-yl)-1H-pyrazolo[3,4-c]pyridin-5-yl]urea]"
14,0.718,"CCN1C[C@H](NC(=O)Nc2cc3cnn(-c4ccnc(C)c4)c3cn2)[C@@H](c2ccccc2)C1 [Example 199, 1-[(3R,4S)-1-ethyl-4-phenylpyrrolidin-3-yl]-3-[1-(2-methylpyridin-4-yl)-1H-pyrazolo[3,4-c]pyridin-5-yl]urea]"
